# Test results as given in patent US10253039B2, “Inhibitors of bacterial DNA gyrase with efficacy against gram-negative bacteria” (priority 2014, dated 2019).
# Where two headings read alike, the source gives them in different places.
# Key:
# Format in all cases: cell-based
# [1] = test system: Staphylococcus saprophyticus subsp. saprophyticus; experiment: MIC, 20-strain panel
# Procedure, shortened: (§1)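 Each of the 20 strains is tested in LB at a 1:10000 dilution of a growing subculture. Compound is titrated 2-fold in three replicates; a DMSO column serves as vehicle control. After shaking incubation at 37° C. for 16-18 hours, MIC is taken as the lowest clear concentration.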
# Streptococcus agalactiae = experiment: MIC, 20-strain panel
# Procedure, shortened: as §1
# Shigella flexneri = experiment: MIC, 20-strain panel
# Procedure, shortened: as §1
# Streptococcus pyogenes = experiment: MIC, 20-strain panel
# Procedure, shortened: as §1
# E. coli MG1655 = experiment: MIC, 20-strain panel; conditions: Escherichia coli, read-out: MIC
# Procedure, shortened: as §1
# [2] = test system: Staphylococcus aureus subsp. aureus; experiment: MIC, 20-strain panel; conditions: read-out: MIC
# Procedure, shortened: as §1
# [3] = test system: Salmonella enterica subsp. enterica typhimurium; experiment: MIC, 20-strain panel
# Procedure, shortened: as §1
# [4] = test system: Staphylococcus epidermidis; experiment: MIC, 20-strain panel
# Procedure, shortened: as §1
# E. coli JW5503 (deltolC) = experiment: MIC, 20-strain panel; conditions: Escherichia coli
# Procedure, shortened: as §1
# [5] = test system: Klebsiella pneumoniae subsp. pneumoniae; experiment: MIC, 20-strain panel
# Procedure, shortened: as §1
# Edwardsiella tarda = experiment: MIC, microdilution in 96-well plates
# Procedure, shortened: as §1
# E. coli BW25113 = experiment: MIC, microdilution in 96-well plates; conditions: Escherichia coli, read-out: MIC
# Procedure, shortened: as §1
# [6] = Staphylococcus aureus subsp. aureus
# [7] = Salmonella enterica subsp. enterica Typhimurium
# [8] = Klebsiella pneumoniae subsp. pneumoniae
# [9] = H: Staphylococcus aureus subsp. aureus
# [10] = F: Salmonella enterica subsp. enterica Typhimurium
# [11] = E: Klebsiella pneumoniae subsp. pneumoniae
Structure (SMILES),MIC [1],MIC (Streptococcus agalactiae),MIC (Shigella flexneri),MIC (Streptococcus pyogenes),"MIC (E. coli MG1655; MG1655, E. coli MG1655)","MIC [2, 6]","MIC [3, 7]",MIC [4],MIC (E. coli JW5503 (deltolC); E. coli JW5503 (deltolC)),"MIC [5, 8]",MIC (Edwardsiella tarda),"MIC (E. coli BW25113; BW25113, E. coli BW25113)",MIC (Shigella flexneri; G: Shigella flexneri),"MIC (E. coli MG1655; MG1655, A: E. coli MG1655)","MIC [2, 9]","MIC [3, 10]",MIC (E. coli JW5503 (deltolC); C: E. coli JW5503 (deltolC)),"MIC [5, 11]",MIC (Edwardsiella tarda; D: Edwardsiella tarda),"MIC (E. coli BW25113; BW25113, B: E. coli BW25113)"
CC(C)Oc1ccc(CN2CC[C@@H](NS(=O)(=O)c3cc(C(F)(F)F)cc(C(F)(F)F)c3)C2)cc1 [Compound 135],> 8 µg/mL,> 8 µg/mL,> 8 µg/mL,> 8 µg/mL,> 8 µg/mL,> 8 µg/mL,> 8 µg/mL,> 8 µg/mL,8 µg/mL,> 8 µg/mL,> 8 µg/mL,> 8 µg/mL,–,–,–,–,–,–,–,–
Cc1nn(C)c2ncc(S(=O)(=O)N[C@@H]3CCN(Cc4ccc(OC(C)C)cc4)C3)cc12 [Compound 123],> 8 µg/mL,> 8 µg/mL,–,> 8 µg/mL,–,–,–,> 8 µg/mL,–,–,–,–,> 8 µg/mL,> 8 µg/mL,> 8 µg/mL,> 8 µg/mL,> 8 µg/mL,> 8 µg/mL,> 8 µg/mL,> 8 µg/mL
N#Cc1cccc(S(=O)(=O)N[C@@H]2CCN(Cc3ccc(-c4cccc(Cl)c4)cc3)C2)c1 [Compound 24],> 8 µg/mL,> 8 µg/mL,–,> 8 µg/mL,–,–,–,> 8 µg/mL,–,–,–,–,> 8 µg/mL,> 8 µg/mL,> 8 µg/mL,> 8 µg/mL,4 µg/mL,> 8 µg/mL,> 8 µg/mL,> 8 µg/mL
CC(=O)c1cccc(S(=O)(=O)N[C@@H]2CCN(Cc3ccc(OC(C)C)cc3)C2)c1 [Compound 49],> 8 µg/mL,> 8 µg/mL,–,> 8 µg/mL,–,–,–,> 8 µg/mL,–,–,–,–,> 8 µg/mL,> 8 µg/mL,> 8 µg/mL,> 8 µg/mL,2 µg/mL,> 8 µg/mL,> 8 µg/mL,> 8 µg/mL
O=S(=O)(N[C@@H]1CCN(Cc2ccc(OC3CC3)cc2)C1)c1cc(C(F)(F)F)ccc1Cl [Compound 90],> 8 µg/mL,> 8 µg/mL,–,> 8 µg/mL,–,–,–,> 8 µg/mL,–,–,–,–,~8 µg/mL,> 8 µg/mL,> 8 µg/mL,4 µg/mL,< 0.0625 µg/mL,> 8 µg/mL,> 8 µg/mL,~8 µg/mL
N#Cc1ccc(S(=O)(=O)N[C@@H]2CCN(Cc3ccc(OC4CC4)cc3)C2)cn1 [Compound 159],> 8 µg/mL,> 8 µg/mL,> 8 µg/mL,> 8 µg/mL,> 8 µg/mL,> 8 µg/mL,> 8 µg/mL,> 8 µg/mL,> 8 µg/mL,> 8 µg/mL,> 8 µg/mL,> 8 µg/mL,–,–,–,–,–,–,–,–
CC(=O)c1cc(S(=O)(=O)N[C@@H]2CCN(Cc3ccc(OC4CC4)cc3)C2)ccc1C [Compound 133],> 8 µg/mL,> 8 µg/mL,> 8 µg/mL,> 8 µg/mL,> 8 µg/mL,> 8 µg/mL,> 8 µg/mL,> 8 µg/mL,> 8 µg/mL,> 8 µg/mL,> 8 µg/mL,> 8 µg/mL,–,–,–,–,–,–,–,–
CC(C)Oc1ccc(CN2CC[C@@H](NS(=O)(=O)c3cc(C#N)ccc3Cl)C2)cc1 [Compound 10],> 8 µg/mL,> 8 µg/mL,–,> 8 µg/mL,–,–,–,> 8 µg/mL,–,–,–,–,> 8 µg/mL,> 8 µg/mL,> 8 µg/mL,8 µg/mL,0.25 µg/mL,> 8 µg/mL,> 8 µg/mL,> 8 µg/mL
CC(C)Oc1c(Cl)cc(CN2CC[C@@H](NS(=O)(=O)c3cccc(C#N)c3)C2)cc1Cl [Compound 116],> 8 µg/mL,> 8 µg/mL,–,> 8 µg/mL,–,–,–,> 8 µg/mL,–,–,–,–,> 8 µg/mL,> 8 µg/mL,> 8 µg/mL,> 8 µg/mL,> 8 µg/mL,> 8 µg/mL,> 8 µg/mL,> 8 µg/mL
O=S(=O)(N[C@@H]1CCN(Cc2ccc(OC3CCCC3)cc2)C1)c1cccc(C(F)(F)F)c1 [Compound 41],> 8 µg/mL,> 8 µg/mL,–,> 8 µg/mL,–,–,–,8 µg/mL,–,–,–,–,> 8 µg/mL,> 8 µg/mL,~8 µg/mL,8 µg/mL,0.5 µg/mL,> 8 µg/mL,> 8 µg/mL,> 8 µg/mL
O=S(=O)(N[C@@H]1CCN(Cc2ccc(-c3ccccc3)cc2)C1)c1cc(F)cc(C(F)(F)F)c1 [Compound 71],> 8 µg/mL,> 8 µg/mL,–,8 µg/mL,–,–,–,> 8 µg/mL,–,–,–,–,> 8 µg/mL,> 8 µg/mL,> 8 µg/mL,> 8 µg/mL,4 µg/mL,> 8 µg/mL,> 8 µg/mL,> 8 µg/mL
O=S(=O)(N[C@@H]1CCN(Cc2ccc(OC(F)F)cc2)C1)c1cccc(C(F)(F)F)c1 [Compound 87],> 8 µg/mL,> 8 µg/mL,–,> 8 µg/mL,–,–,–,> 8 µg/mL,–,–,–,–,> 8 µg/mL,> 8 µg/mL,> 8 µg/mL,> 8 µg/mL,2 µg/mL,> 8 µg/mL,> 8 µg/mL,> 8 µg/mL
N#Cc1cccc(S(=O)(=O)N[C@@H]2CCN(Cc3ccc(-c4cccs4)cc3)C2)c1 [Compound 25],> 8 µg/mL,> 8 µg/mL,–,> 8 µg/mL,–,–,–,> 8 µg/mL,–,–,–,–,> 8 µg/mL,~8 µg/mL,> 8 µg/mL,4 µg/mL,0.25 µg/mL,> 8 µg/mL,> 8 µg/mL,~8 µg/mL
N#Cc1cccc(S(=O)(=O)N[C@@H]2CCN(Cc3ccc(OC(F)F)cc3)C2)c1 [Compound 2],> 8 µg/mL,> 8 µg/mL,–,> 8 µg/mL,–,–,–,> 8 µg/mL,–,–,–,–,> 8 µg/mL,> 8 µg/mL,> 8 µg/mL,> 8 µg/mL,8 µg/mL,> 8 µg/mL,> 8 µg/mL,> 8 µg/mL
COc1cc(CN2CC[C@@H](NS(=O)(=O)c3cccc(C(F)(F)F)c3)C2)ccc1OC(C)C [Compound 42],> 8 µg/mL,> 8 µg/mL,–,> 8 µg/mL,–,–,–,> 8 µg/mL,–,–,–,–,> 8 µg/mL,> 8 µg/mL,> 8 µg/mL,> 8 µg/mL,> 8 µg/mL,> 8 µg/mL,> 8 µg/mL,> 8 µg/mL
O=S(=O)(N[C@@H]1CCN(Cc2ccn(-c3ccccc3)n2)C1)c1cccc(C(F)(F)F)c1 [Compound 125],> 8 µg/mL,> 8 µg/mL,–,> 8 µg/mL,–,–,–,> 8 µg/mL,–,–,–,–,> 8 µg/mL,> 8 µg/mL,> 8 µg/mL,> 8 µg/mL,> 8 µg/mL,> 8 µg/mL,> 8 µg/mL,> 8 µg/mL
COc1ccccc1-c1ccc(CN2CC[C@@H](NS(=O)(=O)c3cccc(C(F)(F)F)c3)C2)cc1 [Compound 66],> 8 µg/mL,> 8 µg/mL,–,> 8 µg/mL,–,–,–,8 µg/mL,–,–,–,–,> 8 µg/mL,> 8 µg/mL,> 8 µg/mL,> 8 µg/mL,4 µg/mL,> 8 µg/mL,> 8 µg/mL,> 8 µg/mL
O=S(=O)(N[C@@H]1CCN(Cc2ccc(OC3CC3)cc2)C1)c1ncc[nH]1 [Compound 130],> 8 µg/mL,> 8 µg/mL,> 8 µg/mL,> 8 µg/mL,> 8 µg/mL,> 8 µg/mL,~8 µg/mL,> 8 µg/mL,~8 µg/mL,> 8 µg/mL,> 8 µg/mL,> 8 µg/mL,–,–,–,–,–,–,–,–
